Broadly, the IC50 is the midpoint of a concentration-inhibition curve.

For 15 compounds, IC50 results are on record in patent US11279703B2, “Fused pyrimidine compounds as BRD4 and JAK2 dual inhibitors and methods for use thereof” (APTOSE BIOSCIENCES INC., priority 2016, dated 2022).

One assay deals with BRD4-BD1 (Homo sapiens (Human), UniProt O60885). Nature of the assay: AlphaLisa bromodomain binding assay, BRD4-BD1. As to conditions: Table 6; read-out: BRD4(1) IC50. A general note: In Alpha technology, singlet oxygen from a donor bead excites a nearby acceptor bead.
For a further assay, the target named is BRD4-BD2 (Homo sapiens (Human), UniProt O60885). Nature of the assay: AlphaLisa bromodomain binding assay, BRD4-BD2. As to conditions: Table 6; read-out: BRD4(2) IC50. From the text: (§1) An AlphaLisa assay was used to observe bromodomain binding and measure IC50s for the compounds disclosed herein. An AlphaLisa assay is a bead-based assay used to detect interactions between bromodomains and polyacetylated histone peptides. Donor and acceptor beads bound to target and ligand are brought into proximity by this protein-protein interaction.
(§2) Equipment Required • 1. […] Plate centrifuge • 3. Plate shaker • 4. […] Single channel and multi-channel pipettes • 6. Microplate reader (Pherastar)
(§3) Stock and Final Assay Concentrations (FAC) • 1. All reference and test compounds are made at a concentration of 10 mM in DMSO. Compounds are serially diluted in DMSO and a FAC starting from 10 μM to 10 point 3 fold serial dilutions is arrived. FAC of DMSO is 1%. • 2. Enzyme stock and FAC
(§4) Biotinylated substrate (Acetylated histone H4, biotinylated substrate—cat no. AS64989-025, Anaspec) stock and FAC
(§5) • 4. Acceptor and donor beads stock and FAC
(§6) Buffers • For the enzyme and substrate dilution following buffer is used (for 50 ml) • HEPES: 50 mM 2.5 ml • NaCl: 25 mM 1.25 ml • DTT: 10 mM 0.05 ml • BSA: 0.1% 0.05 g • MilliQ water: 45.7 ml • For dilution of acceptor and donor beads AlphaLISA 5× epigenetics Buffer Perkin Elmer (Cat: AL008C) is used at 1× concentration.
(§7) Procedure • 1. […] Tap the plate gently • 3. […] Cover with plate sealer • 5. […] Incubate the plate at room temperature for 10 minutes • 7. Add 10 μl of the substrate • 8. Cover with plate sealer • 9. […] Cover with plate sealer • 14. […] Cover with plate sealer • 18.
(§8) The percent inhibition is calculated in the excel analysis template and the IC50 values are subsequently determined using a sigmoidal dose-response curve (variable slope) using GraphPad Prism® 5 software.

The target in the next assay is BRD2-BD1 (Homo sapiens (Human), UniProt P25440). Briefly: AlphaLisa bromodomain binding assay, BRD2-BD1. The following applies: Table 6; read-out: BRD2(1) IC50.
Chain of BRD2-BD1 (P25440 74-180): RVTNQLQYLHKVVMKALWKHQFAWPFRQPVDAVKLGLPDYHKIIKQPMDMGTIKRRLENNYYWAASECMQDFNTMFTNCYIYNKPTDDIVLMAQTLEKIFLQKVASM
Description: as §1, §2, §3, §4, §5, §6, §7, §8

The target of another assay is BRD3-BD1 (Homo sapiens (Human), UniProt Q15059). Nature of the assay: AlphaLisa bromodomain binding assay, BRD3-BD1. The following applies: Table 6; read-out: BRD3(1) IC50.
Chain of BRD3-BD1 (Q15059 34-140): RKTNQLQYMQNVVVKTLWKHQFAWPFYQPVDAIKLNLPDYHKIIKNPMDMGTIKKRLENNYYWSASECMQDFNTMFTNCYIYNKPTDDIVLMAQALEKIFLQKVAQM
Description: as §1, §2, §3, §4, §5, §6, §7, §8

A further assay addresses BRDT-BD1 (Homo sapiens (Human), UniProt Q58F21). Nature of the assay: AlphaLisa bromodomain binding assay, BRDT-BD1. The following applies: Table 6; read-out: BRDT(1) IC50.
Description: as §1, §2, §3, §4, §5, §6, §7, §8

Another assay has as its target JAK2 (Homo sapiens (Human), UniProt O60674). Briefly: HTRF kinase assay, JAK2. The assay is classed as biochemical. The following applies: Table 6. (In general: TR-FRET usually uses a lanthanide donor and a delayed reading to cut background.)
In another assay the target is JAK1 (Homo sapiens (Human), UniProt P23458). Nature of the assay: HTRF kinase assay, JAK1. The following applies: Table 6. The assay is classed as biochemical.
Chain of JAK1 (P23458 whole entry): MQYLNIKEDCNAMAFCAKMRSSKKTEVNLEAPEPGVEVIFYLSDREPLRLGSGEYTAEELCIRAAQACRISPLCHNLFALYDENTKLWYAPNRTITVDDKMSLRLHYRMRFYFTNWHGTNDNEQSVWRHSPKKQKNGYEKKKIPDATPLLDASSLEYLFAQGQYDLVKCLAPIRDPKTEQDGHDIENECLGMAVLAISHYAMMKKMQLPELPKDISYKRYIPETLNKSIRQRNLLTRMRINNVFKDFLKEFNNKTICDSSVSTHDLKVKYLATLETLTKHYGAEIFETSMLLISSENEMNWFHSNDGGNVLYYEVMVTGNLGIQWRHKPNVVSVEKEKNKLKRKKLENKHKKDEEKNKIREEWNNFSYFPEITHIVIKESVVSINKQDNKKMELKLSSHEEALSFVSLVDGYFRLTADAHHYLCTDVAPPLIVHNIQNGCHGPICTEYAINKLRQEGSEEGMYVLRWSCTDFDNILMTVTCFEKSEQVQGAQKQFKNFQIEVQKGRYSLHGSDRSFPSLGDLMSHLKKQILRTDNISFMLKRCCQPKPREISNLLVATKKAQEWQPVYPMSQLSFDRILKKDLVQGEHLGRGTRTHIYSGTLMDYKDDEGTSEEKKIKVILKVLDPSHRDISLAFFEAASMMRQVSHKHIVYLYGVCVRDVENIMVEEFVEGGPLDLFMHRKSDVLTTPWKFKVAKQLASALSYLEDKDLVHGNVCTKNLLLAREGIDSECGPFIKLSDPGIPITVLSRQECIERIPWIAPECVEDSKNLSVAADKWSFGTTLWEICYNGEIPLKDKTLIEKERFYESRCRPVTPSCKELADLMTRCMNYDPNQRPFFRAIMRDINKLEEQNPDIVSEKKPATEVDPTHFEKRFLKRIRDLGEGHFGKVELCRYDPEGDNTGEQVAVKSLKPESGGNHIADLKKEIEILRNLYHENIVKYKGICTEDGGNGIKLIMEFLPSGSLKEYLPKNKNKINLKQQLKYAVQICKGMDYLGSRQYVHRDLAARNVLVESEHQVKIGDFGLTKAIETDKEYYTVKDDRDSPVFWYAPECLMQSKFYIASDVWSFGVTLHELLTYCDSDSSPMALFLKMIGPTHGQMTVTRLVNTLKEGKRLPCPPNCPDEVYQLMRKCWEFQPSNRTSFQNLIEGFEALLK
Description: (§9) A kinase assay with HTRF was used to observe JAK activity and calculate the IC50s of compounds disclosed herein. HTRF is an enzymatic assay used to determine the amount of phosphorylated peptide. FRET (Fluorescence Resonance Energy Transfer) is based on the transfer of energy between two fluorophores—a donor and an acceptor—when in close proximity. Molecular interactions between biomolecules can be assessed by coupling each partner with a fluorescent label and by detecting the level of energy transfer. The amount of phopshorylated peptide can be detected using a combination of a Eu 3+Cryptate labeled anti-phospho residue antibody, SA-XL665 and a biotinylated substrate. The signal is proportional to the concentration of phospho-residues.
(§10) Equipment Required • 1. […] Plate centrifuge • 3. Plate shaker • 4. […] Single channel and multi-channel pipettes • 6. Microplate reader (Pherastar)]
(§11) Stock and Final Assay Concentrations (FAC) • 1. All reference and test compounds are made at a concentration of 10 mM in DMSO. Compounds are serially diluted in DMSO and a FAC starting from 10 μM to 10 point 3 fold serial dilutions is arrived. For Ruxolitinib the starting FAC is 1 μM. FAC of DMSO is 1%. • 2. Enzyme stock and FAC
(§12) • JAK-1: Invtirogen Cat: PR8767C • JAK-2: Invtirogen Cat: PR7820B • JAK-3: Invtirogen Cat: PR7507B • 3. Substrate (synthetic peptide-Biotinylated-N-terminal tag-[…] from Biopeptide) stock and FAC
(§13) • Adenosine 5′-triphosphate disodium salt hydrate: Sigma Cat: A26209 • 5. […] Buffers • Base buffer (for 50 ml)
(§14) • HTRF buffer: • 50 mM Tris-HCl, pH—7.5 • 100 mM NaCl • 0.1% BSA • 0.05% Tween20 • 0.5 mM EDTA
(§15) To a 384 well black-plate: • 1. Add 17 μL of the buffer to each well of the 384-well black plate • 2. […] Add 5 μl of the enzyme to each well of the plate • 4. Add 10 μl of the substrate and ATP mix to all the wells • 5. Cover with plate sealer • 6. […] Incubate at room temperature for 1 hour on shaker • 8. […] Add 37.5 μL of the HTRF mix to these wells. • 9. Incubate the plate at room temperature on shaker for 45 minutes. • 10.
as §8

In a further assay the target is JAK3 (Homo sapiens (Human), UniProt P52333). Briefly: HTRF kinase assay, JAK3. It is filed as biochemical. The following applies: Table 6.
Chain of JAK3 (P52333 whole entry): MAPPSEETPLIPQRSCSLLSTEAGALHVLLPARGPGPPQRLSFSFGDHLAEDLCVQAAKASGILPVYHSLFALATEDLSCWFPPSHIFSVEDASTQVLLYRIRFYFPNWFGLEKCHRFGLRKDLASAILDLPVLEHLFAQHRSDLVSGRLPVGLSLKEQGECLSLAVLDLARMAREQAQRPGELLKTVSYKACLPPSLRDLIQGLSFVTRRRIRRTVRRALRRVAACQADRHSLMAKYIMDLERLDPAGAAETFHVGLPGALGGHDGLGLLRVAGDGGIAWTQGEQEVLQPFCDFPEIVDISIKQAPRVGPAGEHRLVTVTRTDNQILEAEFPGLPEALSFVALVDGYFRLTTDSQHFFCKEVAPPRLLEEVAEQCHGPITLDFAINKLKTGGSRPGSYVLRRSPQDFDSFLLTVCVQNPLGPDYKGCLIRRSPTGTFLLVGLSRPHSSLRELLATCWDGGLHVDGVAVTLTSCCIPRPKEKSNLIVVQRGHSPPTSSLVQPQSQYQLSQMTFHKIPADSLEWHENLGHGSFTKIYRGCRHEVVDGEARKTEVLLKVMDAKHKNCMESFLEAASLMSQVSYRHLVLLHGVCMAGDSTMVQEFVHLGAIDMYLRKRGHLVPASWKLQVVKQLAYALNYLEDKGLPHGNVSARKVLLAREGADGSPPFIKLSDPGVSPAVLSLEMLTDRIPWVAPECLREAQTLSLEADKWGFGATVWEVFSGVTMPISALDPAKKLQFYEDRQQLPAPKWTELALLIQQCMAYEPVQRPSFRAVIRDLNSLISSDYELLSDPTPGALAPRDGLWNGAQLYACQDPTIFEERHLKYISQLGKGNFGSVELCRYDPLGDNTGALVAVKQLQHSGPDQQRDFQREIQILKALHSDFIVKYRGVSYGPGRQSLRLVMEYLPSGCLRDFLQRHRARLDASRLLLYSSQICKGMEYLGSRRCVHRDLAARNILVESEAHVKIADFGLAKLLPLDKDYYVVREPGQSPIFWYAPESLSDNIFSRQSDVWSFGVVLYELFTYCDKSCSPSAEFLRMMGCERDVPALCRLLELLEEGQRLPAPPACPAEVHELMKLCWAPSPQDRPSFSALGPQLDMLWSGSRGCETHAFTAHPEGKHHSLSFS
Description: as §9, §10, §11, §12, §13, §14, §15, §8

Chain of JAK2 (O60674 whole entry): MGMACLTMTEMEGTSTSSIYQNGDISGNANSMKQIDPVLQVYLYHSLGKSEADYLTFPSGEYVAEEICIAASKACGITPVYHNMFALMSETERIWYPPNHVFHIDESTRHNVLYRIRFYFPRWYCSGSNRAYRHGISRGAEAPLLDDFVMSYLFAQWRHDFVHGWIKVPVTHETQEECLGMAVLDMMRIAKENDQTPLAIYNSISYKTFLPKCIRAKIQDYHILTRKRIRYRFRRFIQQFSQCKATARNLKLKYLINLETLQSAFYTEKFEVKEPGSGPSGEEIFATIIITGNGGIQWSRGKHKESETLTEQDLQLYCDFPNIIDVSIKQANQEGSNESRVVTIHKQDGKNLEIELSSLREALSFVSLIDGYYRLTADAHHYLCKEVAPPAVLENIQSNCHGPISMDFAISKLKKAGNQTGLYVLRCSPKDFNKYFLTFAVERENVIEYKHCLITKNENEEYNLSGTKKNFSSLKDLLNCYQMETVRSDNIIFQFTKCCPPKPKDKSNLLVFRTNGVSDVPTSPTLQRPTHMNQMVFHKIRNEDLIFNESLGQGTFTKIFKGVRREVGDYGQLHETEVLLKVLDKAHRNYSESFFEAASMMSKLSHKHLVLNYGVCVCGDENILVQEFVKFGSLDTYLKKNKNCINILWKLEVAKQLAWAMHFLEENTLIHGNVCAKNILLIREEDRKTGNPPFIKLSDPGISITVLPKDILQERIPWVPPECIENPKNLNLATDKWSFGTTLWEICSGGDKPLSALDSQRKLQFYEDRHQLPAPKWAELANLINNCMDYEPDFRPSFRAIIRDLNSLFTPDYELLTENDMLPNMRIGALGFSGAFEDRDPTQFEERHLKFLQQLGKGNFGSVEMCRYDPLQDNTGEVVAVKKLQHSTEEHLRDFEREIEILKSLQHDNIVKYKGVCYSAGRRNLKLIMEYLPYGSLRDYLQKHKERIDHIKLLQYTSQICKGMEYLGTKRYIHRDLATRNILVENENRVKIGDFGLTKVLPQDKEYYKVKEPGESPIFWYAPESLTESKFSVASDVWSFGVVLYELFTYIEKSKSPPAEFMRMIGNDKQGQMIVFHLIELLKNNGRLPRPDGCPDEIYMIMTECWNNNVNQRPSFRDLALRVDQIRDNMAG

In the case of `CNC1CCN(c2ccc(Nc3ncc4scc(-c5ccc(F)c(NS(=O)(=O)C(C)(C)C)c5)c4n3)cc2F)CC1` [drawing 458], the IC50 on BRD4-BD1 stood at 192 nM; at BRD4-BD2, 92 nM; at BRD2-BD1 it was 670 nM; at BRD3-BD1 it was 154 nM; at BRDT-BD1, 223 nM; at JAK2 it was 10 nM. The IC50 worked out at 1200 nM at JAK1 and 82 nM on JAK3.
For `CNCCNC(=O)Cc1ccc(Nc2ncc3ccn(-c4cccc(NS(=O)(=O)C(C)(C)C)c4)c3n2)cc1`, the concentration for half-maximal inhibition (IC50) came out at 205 nM on BRD4-BD1; 67 nM on BRD4-BD2; 576 nM on BRD2-BD1; 117 nM on BRD3-BD1; 268 nM on BRDT-BD1; 50 nM at JAK2. The IC50 turned out to be 178 nM on JAK1 and 253 nM at JAK3.
In the case of `CN(C)C1CCN(c2ccc(Nc3ncc4ccn(-c5ccc(F)c(NS(=O)(=O)C(C)(C)C)c5)c4n3)cc2F)CC1` [drawing 366], the IC50 at BRD4-BD1 was found to be 63 nM; on BRD4-BD2, 88 nM; on BRD2-BD1, 231 nM; on BRD3-BD1 it was 49 nM; on BRDT-BD1, 140 nM; on JAK2, 27 nM. The IC50 at JAK1 turned out to be 2100 nM; at JAK3, 193 nM.
For `CC(C)(C)S(=O)(=O)Nc1cccc(-c2csc3cnc(Nc4ccc(N5CCNCC5)c(F)c4)nc23)c1`, the IC50 at BRD4-BD1 was 295 nM; at BRD4-BD2, 193 nM; at BRD2-BD1, 506 nM; at BRD3-BD1, 181 nM; on BRDT-BD1, 308 nM; on JAK2, 2 nM. For the same compound, the figures for the IC50 at JAK1 and on JAK3 were 169 nM and 61 nM, respectively.
As for `CC(C)(C)S(=O)(=O)Nc1cc(-n2ccc3cnc(Nc4cc(F)c5c(c4)CC4CNCCN54)nc32)ccc1F` (stereo not drawn) [drawing 465], the IC50 worked out at 115 nM on BRD4-BD1; 120 nM at BRD4-BD2; 353 nM at BRD2-BD1; 83 nM at BRD3-BD1; 292 nM at BRDT-BD1; 61 nM on JAK2. Further, the IC50 was 10000 nM on JAK1 and 285 nM at JAK3.
`CN1CCN(c2ccc(Nc3ncc4ccn(-c5cccc(NS(=O)(=O)C(C)(C)C)c5)c4n3)cc2F)CC1`: the concentration for half-maximal inhibition (IC50) at BRD4-BD1 turned out to be 434 nM; at BRD4-BD2, 487 nM; at BRD2-BD1, 2860 nM; at BRD3-BD1, 652 nM; on BRDT-BD1, 1110 nM; on JAK2, 18 nM. Moreover, the IC50 on JAK1 came to 424 nM; on JAK3 it was 125 nM.
As for `CN1CCN(c2ccc(Nc3ncc4ccn(-c5cccc(NS(=O)(=O)C6CC6)c5)c4n3)cc2)CC1` [drawing 278], the IC50 at BRD4-BD1 came out at 355 nM; on BRD4-BD2, 729 nM; on BRD2-BD1, 1900 nM; on BRD3-BD1, 825 nM; at BRDT-BD1 it was 2500 nM; at JAK2, 2.5 nM. The IC50 on JAK1 was 244 nM; on JAK3, 69 nM.
For the compound `CN1CCC(NC(=O)c2ccc(Nc3ncc4ccn(-c5cccc(NS(=O)(=O)C(C)(C)C)c5)c4n3)cc2F)CC1`, the IC50 at BRD4-BD1 was 240 nM; on BRD4-BD2, 156 nM; at BRD2-BD1, 314 nM; at BRD3-BD1, 89 nM; at BRDT-BD1, 230 nM; on JAK2, 11.5 nM. For the same compound, the results for the IC50 on JAK1 and at JAK3 were 57 nM and 103 nM, respectively.
Regarding `CC(C)(C)S(=O)(=O)Nc1cccc(-n2ccc3cnc(Nc4ccc(C(=O)N5CCNCC5)c(F)c4)nc32)c1` [drawing 462], the concentration for half-maximal inhibition (IC50) worked out at 125 nM at BRD4-BD1; 54 nM on BRD4-BD2; 473 nM at BRD2-BD1; 158 nM at BRD3-BD1; 268 nM on BRDT-BD1; 52 nM on JAK2. For the same compound, the figures for the IC50 at JAK1 and at JAK3 were 992 nM and 403 nM, respectively.
Turning to `CC(C)(C)S(=O)(=O)Nc1cccc(-n2ccc3cnc(Nc4ccc(C(=O)N5CCNCC5)c(F)c4)nc32)c1` [drawing 463], the IC50 on BRD4-BD1 was 82 nM; on BRD4-BD2, 54 nM; on BRD2-BD1, 369 nM; at BRD3-BD1 it was 123 nM; on BRDT-BD1 it was 194 nM; on JAK2 it was 28 nM. Also, the IC50 on JAK1 was 587 nM; on JAK3, 334 nM.
As to `CN(C)C1CCN(c2ccc(Nc3ncc4scc(-c5ccc(F)c(NS(=O)(=O)C6(C)CC6)c5)c4n3)cc2F)CC1`, the half-maximal inhibitory concentration (IC50) on BRD4-BD1 is 233 nM; at BRD4-BD2, 203 nM; on BRD2-BD1 it was 605 nM; on BRD3-BD1, 196 nM; on BRDT-BD1, 329 nM; at JAK2 it was 11 nM. The IC50 was 734 nM on JAK1 and 60 nM at JAK3.
`CNC1CCN(c2ccc(Nc3ncc4ccn(-c5ccc(F)c(NS(=O)(=O)C(C)(C)C)c5)c4n3)cc2F)CC1` [drawing 456]: the IC50 is 123 nM at BRD4-BD1; 86 nM on BRD4-BD2; 360 nM at BRD2-BD1; 97 nM on BRD3-BD1; 185 nM on BRDT-BD1; 39 nM on JAK2. Besides, the IC50 at JAK1 was found to be 1500 nM; at JAK3, 173 nM.
As for `CN(C)C1CCN(c2ccc(Nc3ncc4scc(-c5ccc(F)c(NS(=O)(=O)C(C)(C)C)c5)c4n3)cc2F)CC1`, the IC50 on BRD4-BD1 was determined as 108 nM; at BRD4-BD2, 91 nM; on BRD2-BD1, 292 nM; on BRD3-BD1 it was 110 nM; at BRDT-BD1, 177 nM; on JAK2, 8 nM. In addition, the values for the IC50 at JAK1 and at JAK3 were 927 nM and 97 nM, respectively.
Regarding `CC(C)(C)S(=O)(=O)Nc1cccc(-c2csc3cnc(Nc4ccc5c(c4)CCN4CCNCC54)nc23)c1` (stereo not drawn), the concentration for half-maximal inhibition (IC50) on BRD4-BD1 was 109 nM; at BRD4-BD2, 131 nM; at BRD2-BD1, 489 nM; at BRD3-BD1 it was 100 nM; at BRDT-BD1, 281 nM; on JAK2, 2 nM. The results for the IC50 on JAK1 and on JAK3 were 44 nM and 18 nM, respectively.
On to `CC(C)(C)S(=O)(=O)Nc1cc(-n2ccc3cnc(Nc4cc(F)c5c(c4)CC4CNCCN54)nc32)ccc1F` (stereo not drawn) [drawing 443], for which the IC50 on BRD4-BD1 worked out at 79 nM; at BRD4-BD2 it was 85 nM; on BRD2-BD1 it was 235 nM; at BRD3-BD1, 81 nM; at BRDT-BD1, 185 nM; at JAK2 it was 40 nM. Moreover, the IC50 turned out to be 3700 nM on JAK1 and 206 nM at JAK3.
